# Experimental data: patent US20260042731A1, “(2,4-DICHLOROPHENOXY)ACETIC ACID ANALOGS” (CORTEVA AGRISCIENCE LLC, priority 2022, published 2026)
# Where two headings read alike, the source gives them in different places.
# How the values were obtained:
# [1] = system: weeds ABUTH, AMATA, AMBEL, CHEAL, ERICA; assay: Postemergence herbicide evaluation, overall average % weed control (ABUTH, AMATA, AMBEL, CHEAL, ERICA); assay type: in vivo; conditions: post-emergence, read-out: Overall Ave % Weed Control; for pest or weed control at 280 g/ha: 280 g ae/ha; for pest or weed control at 560 g/ha: 560 g ae/ha
# [2] = system: Amaranthus rudis (AMATA), tall water hemp; assay: Postemergence herbicide evaluation, growth of Amaranthus rudis (AMATA); assay type: in vivo; conditions: Amaranthus tuberculatus, post-emergence, read-out: Ave. AMATA, percent reduction in plant size relative to the untreated control; for pest or weed control at 280 g/ha: 280 g ae/ha; for pest or weed control at 560 g/ha: 560 g ae/ha
# [3] = system: glyphosate resistant Conyza canadensis (L.) (ERICA), horseweed; assay: Postemergence herbicide evaluation, growth of Conyza canadensis (ERICA); assay type: in vivo; conditions: Erigeron canadensis, post-emergence, read-out: Ave. ERICA, percent reduction in plant size relative to the untreated control; for pest or weed control at 280 g/ha: 280 g ae/ha; for pest or weed control at 560 g/ha: 560 g ae/ha
# [4] = Volatility of compounds measured by thermogravimetric analysis (TGA); assay type: physicochemical
# [5] = system: Chenopodium album (CHEAL), common lambsquarters; assay: Postemergence herbicide evaluation, growth of Chenopodium album (CHEAL); assay type: in vivo; conditions: Chenopodium album, post-emergence, read-out: Ave. CHEAL, percent reduction in plant size relative to the untreated control; for pest or weed control at 280 g/ha: 280 g ae/ha; for pest or weed control at 560 g/ha: 560 g ae/ha
# [6] = system: Abutilon theophrasti (ABUTH), velvetleaf; assay: Postemergence herbicide evaluation, growth of Abutilon theophrasti (ABUTH); assay type: in vivo; conditions: Abutilon theophrasti, post-emergence, read-out: AVE. ABUTH, percent reduction in plant size relative to the untreated control; for pest or weed control at 280 g/ha: 280 g ae/ha; for pest or weed control at 560 g/ha: 560 g ae/ha
# [7] = system: Ambrosia artemisiifolia (AMBEL), common ragweed; assay: Postemergence herbicide evaluation, growth of Ambrosia artemisiifolia (AMBEL); assay type: in vivo; conditions: Ambrosia artemisiifolia, post-emergence, read-out: AVE. AMBEL, percent reduction in plant size relative to the untreated control; for pest or weed control at 280 g/ha: 280 g ae/ha; for pest or weed control at 560 g/ha: 560 g ae/ha
Compound,"pest or weed control at 280 g/ha ([1]; 168 h, 7 DAA)","pest or weed control at 560 g/ha ([1]; 168 h, 7 DAA)","pest or weed control at 280 g/ha ([1]; 336 h, 14 DAA)","pest or weed control at 560 g/ha ([1]; 336 h, 14 DAA)","pest or weed control at 280 g/ha ([1]; 504 h, 21 DAA)","pest or weed control at 560 g/ha ([1]; 504 h, 21 DAA)","pest or weed control at 280 g/ha ([2]; 168 h, 7 DAA)","pest or weed control at 560 g/ha ([2]; 168 h, 7 DAA)","pest or weed control at 280 g/ha ([2]; 336 h, 14 DAA)","pest or weed control at 560 g/ha ([2]; 336 h, 14 DAA)","pest or weed control at 280 g/ha ([2]; 504 h, 21 DAA)","pest or weed control at 560 g/ha ([2]; 504 h, 21 DAA)","pest or weed control at 280 g/ha ([3]; 168 h, 7 DAA)","pest or weed control at 560 g/ha ([3]; 168 h, 7 DAA)","pest or weed control at 280 g/ha ([3]; 336 h, 14 DAA)","pest or weed control at 560 g/ha ([3]; 336 h, 14 DAA)","pest or weed control at 280 g/ha ([3]; 504 h, 21 DAA)","pest or weed control at 560 g/ha ([3]; 504 h, 21 DAA)","TGA Data (rate of weight loss, volatility) [4]","pest or weed control at 280 g/ha ([5]; 168 h, 7 DAA)",other results
"C/C(=N\OC(=O)COc1ccc(Cl)cc1Cl)c1ccccc1 [Compound A1, Acetophenone O-(2-(2,4-dichlorophenoxy)acetyl) oxime]",73%,77%,87%,92%,89%,95%,73%,78%,85%,87%,80%,82%,73%,73%,90%,90%,93%,98%,0.5 µg/min,70%,"pest or weed control at 560 g/ha ([5]; 168 h, 7 DAA): 70%; pest or weed control at 280 g/ha ([5]; 336 h, 14 DAA): 78%; pest or weed control at 560 g/ha ([5]; 336 h, 14 DAA): 89%; pest or weed control at 280 g/ha ([5]; 504 h, 21 DAA): 83%; pest or weed control at 560 g/ha ([5]; 504 h, 21 DAA): 98%; pest or weed control at 280 g/ha ([6]; 168 h, 7 DAA): 83%; pest or weed control at 560 g/ha ([6]; 168 h, 7 DAA): 85%; pest or weed control at 280 g/ha ([6]; 336 h, 14 DAA): 96%; pest or weed control at 560 g/ha ([6]; 336 h, 14 DAA): 97%; pest or weed control at 280 g/ha ([6]; 504 h, 21 DAA): 97%; pest or weed control at 560 g/ha ([6]; 504 h, 21 DAA): 100%; pest or weed control at 280 g/ha ([7]; 168 h, 7 DAA): 65%; pest or weed control at 560 g/ha ([7]; 168 h, 7 DAA): 80%; pest or weed control at 280 g/ha ([7]; 336 h, 14 DAA): 88%; pest or weed control at 560 g/ha ([7]; 336 h, 14 DAA): 97%; pest or weed control at 280 g/ha ([7]; 504 h, 21 DAA): 95%; pest or weed control at 560 g/ha ([7]; 504 h, 21 DAA): 100%"
"O=C(COc1ccc(Cl)cc1Cl)O/N=C/c1ccccc1 [Compound A2, (E)-benzaldehyde O-(2-(2,4-dichlorophenoxy)acetyl) oxime]",71%,76%,84%,90%,87%,93%,68%,75%,70%,88%,73%,87%,68%,73%,93%,85%,90%,98%,0.8 µg/min,70%,"pest or weed control at 560 g/ha ([5]; 168 h, 7 DAA): 73%; pest or weed control at 280 g/ha ([5]; 336 h, 14 DAA): 70%; pest or weed control at 560 g/ha ([5]; 336 h, 14 DAA): 85%; pest or weed control at 280 g/ha ([5]; 504 h, 21 DAA): 73%; pest or weed control at 560 g/ha ([5]; 504 h, 21 DAA): 87%; pest or weed control at 280 g/ha ([6]; 168 h, 7 DAA): 85%; pest or weed control at 560 g/ha ([6]; 168 h, 7 DAA): 85%; pest or weed control at 280 g/ha ([6]; 336 h, 14 DAA): 94%; pest or weed control at 560 g/ha ([6]; 336 h, 14 DAA): 96%; pest or weed control at 280 g/ha ([6]; 504 h, 21 DAA): 98%; pest or weed control at 560 g/ha ([6]; 504 h, 21 DAA): 96%; pest or weed control at 280 g/ha ([7]; 168 h, 7 DAA): 65%; pest or weed control at 560 g/ha ([7]; 168 h, 7 DAA): 73%; pest or weed control at 280 g/ha ([7]; 336 h, 14 DAA): 92%; pest or weed control at 560 g/ha ([7]; 336 h, 14 DAA): 96%; pest or weed control at 280 g/ha ([7]; 504 h, 21 DAA): 91%; pest or weed control at 560 g/ha ([7]; 504 h, 21 DAA): 100%"
"N/C(=N\OC(=O)COc1ccc(Cl)cc1Cl)c1ccccc1 [Compound A3, N′-(2-(2,4-Dichlorophenoxy)acetoxy)benzimidamide]",67%,73%,75%,85%,81%,83%,75%,78%,75%,90%,83%,70%,68%,75%,85%,90%,90%,95%,1 µg/min,75%,"pest or weed control at 560 g/ha ([5]; 168 h, 7 DAA): 68%; pest or weed control at 280 g/ha ([5]; 336 h, 14 DAA): 83%; pest or weed control at 560 g/ha ([5]; 336 h, 14 DAA): 83%; pest or weed control at 280 g/ha ([5]; 504 h, 21 DAA): 85%; pest or weed control at 560 g/ha ([5]; 504 h, 21 DAA): 87%; pest or weed control at 280 g/ha ([6]; 168 h, 7 DAA): 53%; pest or weed control at 560 g/ha ([6]; 168 h, 7 DAA): 68%; pest or weed control at 280 g/ha ([6]; 336 h, 14 DAA): 55%; pest or weed control at 560 g/ha ([6]; 336 h, 14 DAA): 68%; pest or weed control at 280 g/ha ([6]; 504 h, 21 DAA): 58%; pest or weed control at 560 g/ha ([6]; 504 h, 21 DAA): 72%; pest or weed control at 280 g/ha ([7]; 168 h, 7 DAA): 63%; pest or weed control at 560 g/ha ([7]; 168 h, 7 DAA): 75%; pest or weed control at 280 g/ha ([7]; 336 h, 14 DAA): 78%; pest or weed control at 560 g/ha ([7]; 336 h, 14 DAA): 95%; pest or weed control at 280 g/ha ([7]; 504 h, 21 DAA): 90%; pest or weed control at 560 g/ha ([7]; 504 h, 21 DAA): 90%"
